The results in this text go back to patent US6969724B2, “Compounds” (SmithKline Beecham-SpA, priority 1998, dated 2005).

Where only a bound is given, the exact number is not on record here.

Broadly, the melting point is the temperature of the solid-liquid transition. In turn, `Cl.O=C1CC(CN2CCC(c3ccccc3O)CC2)CCc2ccccc21` (racemic) returned a melting point of 216 to 218 °C. The compound `Cc1cccc2c1CC[C@@H](CN1CCC(c3cccc(F)c3)CC1)C[C@H]2O.Cl` (racemic) showed a melting point of 241 to 243 °C. Take `Cl.O[C@@H]1C[C@H](CN2CCC(c3cccc(F)c3)CC2)CCc2ccccc21` (racemic): the melting point is 238 to 240 °C. `Cl.O=C1CC(CN2CCC(c3ccccc3)CC2)CCc2ccc(Cl)cc21` (racemic) yielded a melting point of 180 to 185 °C. `CO[C@@H]1C[C@H](CN2CCC(c3ccccc3)CC2)CCc2ccccc21.Cl` (racemic): the melting point fell in the range of 213 to 215 °C.

`COc1ccccc1C1CCN(CC2CCc3ccccc3C(=O)C2)CC1.Cl` (racemic): the melting point lay in the range of 232 to 234 °C. Consider `CO[C@@H]1C[C@@H](CN2CCC(c3ccccc3)CC2)CCc2ccccc21.Cl` (racemic), for which the melting point fell in the range of 220 to 222 °C. For the compound `Cl.O[C@@H]1C[C@H](CN2CCC(c3cccc(Br)c3)CC2)CCc2ccccc21` (racemic), the melting point is greater than 250 °C.

`Cl.OC1CC(CN2CCC(c3ccccc3Cl)CC2)CCc2ccccc21` (racemic) gave a melting point of 239 to 240 °C. Under `C1=CC(CN2CCC(c3ccccc3)CC2)CCc2ccccc21.Cl` (racemic) stands greater than 250 °C; under `Cl.OC1CC(CN2CCC(c3ccccc3)CC2)CCc2c(OCc3ccccc3)cccc21` (racemic), 198 to 202 °C; under `Cl.OC1CC(CN2CCC(c3ccccc3)CC2)CCc2c(F)cccc21` (racemic), 218 to 220 °C. `C=CCO[C@@H]1C[C@H](CN2CCC(c3ccccc3)CC2)CCc2ccccc21.Cl` (racemic) showed a melting point of 126 to 128 °C.

On to `Cl.c1ccc(C2CCN(C3CCc4ccccc4CC3)CC2)cc1`, for which the melting point is greater than 250 °C. `COc1ccc2c(c1)C(O)CC(CN1CCC(c3ccccc3)CC1)CC2` (racemic) [Example 11, (±)-3-Methoxy-7-[(4-phenylpiperidin-1-yl)methyl]-6,7,8,9-tetrahydro-5H-benzocyclohepten-5-ol]: the melting point lay within 45 to 48 °C.

In turn, `C1=CC(CN2CCC(c3ccccc3)CC2)Cc2ccccc21.Cl` (racemic) registered a melting point of 239 to 240 °C. As to `COc1cccc2c1C(O)CC(CN1CCC(c3ccccc3)CC1)CC2.Cl` (racemic), the melting point was 176 to 189 °C. The compound `COc1cccc2c1CC[C@H](CN1CCC(c3ccccc3)CC1)C[C@H]2O.Cl` (racemic) yielded a melting point greater than 250 °C.

`Cc1cccc2c1CC[C@@H](CN1CCC(c3ccccc3)CC1)C[C@H]2O` (racemic) [Example 27, (±)-cis-1-methyl-7-[(4-phenylpiperidin-1-yl)methyl]-6,7,8,9-tetrahydro-5H-benzocyclohepten-5-ol] displayed a melting point of 52 to 55 °C. Under `Cl.c1ccc(C2CCN(CC3Cc4ccccc4C3)CC2)cc1` stands greater than 240 °C. For the compound `Cc1cc(C)c2c(c1)C(=O)CC(CN1CCC(c3ccccc3)CC1)CC2.Cl` (racemic), the melting point was 222 to 225 °C. Turning to `Cl.OC1CC(CN2CCC(c3ccc(F)cc3)CC2)CCc2ccccc21` (racemic), the melting point fell in the range of 227 to 229 °C. Compound `Cc1ccccc1C1CCN(C[C@@H]2CCc3ccccc3[C@H](O)C2)CC1.Cl` (racemic) gave a melting point greater than 250 °C. `O[C@@H]1C[C@H](CN2CCC(c3ccccc3)CC2)CCc2ccccc21` (racemic) [Example 9, (±)-cis-7-[(4-Phenylpiperidin-1-yl)methyl]-6,7,8,9-tetrahydro-5H-benzocyclohepten-5-ol] registered a melting point of 48 to 50 °C. Turning to `COc1cccc2c1CCC(CN1CCC(c3ccccc3)CC1)CC2=O.Cl` (racemic), the melting point was in the range of 140 to 143 °C.

The compound `Cl.Oc1ccccc1C1CCN(CC2CCc3ccccc3C(O)C2)CC1` (racemic) had a melting point of 158 to 160 °C. Compound `Cl.Oc1cccc2c1CC[C@@H](CN1CCC(c3ccccc3)CC1)C[C@H]2O` (racemic) returned a melting point of 190 to 193 °C. Consider `Cl.O=C1CC(CN2CCC(c3ccccc3)CC2)CCc2ccccc21` (racemic), for which the melting point was 220 °C (dec.). Consider `Cl.O[C@@H]1C[C@@H](CN2CCC(c3ccccc3)CC2)CCc2ccccc21` (racemic), for which the melting point was greater than 250 °C. Under `Cl.O[C@@H]1C[C@H](CN2CCC(c3ccccc3)CC2)CCc2c(Br)cccc21` (racemic) stands 220 to 224 °C; under `Cl.O[C@@H]1C[C@H](CN2CCC(c3ccc(OCc4ccccc4)cc3)CC2)CCc2ccccc21` (racemic), 225 to 228 °C; under `Cc1cc(C)c2c(c1)C(O)CC(CN1CCC(c3ccccc3)CC1)CC2` (racemic) [Example 20, (±)-1,3-dimethyl-7-[(4-phenylpiperidin-1-yl)methyl]-6,7,8,9-tetrahydro-5H-benzocyclohepten-5-ol], 52 to 55 °C. Compound `COc1ccc2c(c1)C(=O)CC(CN1CCC(c3ccccc3)CC1)CC2.Cl` (racemic) came in with a melting point of 185 to 188 °C.

The compound `Cl.c1ccc(C2CCN(C3Cc4ccccc4C3)CC2)cc1` yielded a melting point greater than 250 °C. Take `COc1cccc2c1CCC(CN1CCC(c3ccccc3)CC1)CC2O` (racemic) [Example 10, (±)-1-Methoxy-7-[(4-phenylpiperidin-1-yl)methyl]-6,7,8,9-tetrahydro-5H-benzocyclohepten-5-ol]: the melting point was 46 to 48 °C.

For the compound `Cl.O[C@@H]1C[C@H](CN2CCC(c3ccccc3)CC2)CCc2c(-c3ccccc3)cccc21` (racemic), the melting point lay within 245 to 246 °C.

As to `COc1cc(OC)cc(C2CCN(CC3CCc4ccccc4C(O)C3)CC2)c1.Cl` (racemic), the melting point was in the range of 223 to 225 °C. The compound `COc1cccc2c1CC[C@@H](CN1CCC(c3ccccc3)CC1)C[C@H]2O.Cl` (racemic) displayed a melting point of 229 to 231 °C. Under `COc1ccccc1C1CCN(C[C@@H]2CCc3ccccc3[C@H](O)C2)CC1` (racemic) [Example 21, (±)-cis-7-[[4-(2-methoxyphenyl)piperidin-1-yl]methyl]-6,7,8,9-tetrahydro-5H-benzocyclohepten-5-ol] stands 72 to 74 °C. As to `Cl.c1ccc(C2CCN(CC3CCc4ccccc4CC3)CC2)cc1`, the melting point is greater than 250 °C.

The compound `Cc1ccccc1C1CCN(CC2CCc3ccccc3CC2)CC1.Cl` showed a melting point of 245 °C.
